# Assay results taken from publication PMC6591251, “Discovery of potent necroptosis inhibitors targeting RIPK1 kinase activity for the treatment of inflammatory disorder and cancer metastasis” (Cell Death & Disease, 2019).
# Assays:
# [1] = tested on: NIH3T3-RIPK3 cells; assay: TNF-induced necroptosis (T/S/Z); type: cell-based, mouse; settings: T/S/Z 24 h
# Method: (§1) Recombinant proteins were incubated with PK6 and PK68 as indicated. […] NIH3T3-RIPK3 cells were pretreated with indicated compounds for 1 h and subsequently treated with T (40 ng/ml)/S (100 nM)/Z (20 μM) or AP20187 (100 nM) for 24 h. Cell viability was determined by measuring ATP levels. e PK6 and PK68 have no effect on MLKL dimerization-induced cell death in HeLa-MLKL (1–190) cells that stably express MLKL (1–190aa) fused to DmrB. HeLa-MLKL (1–190) cells were pretreated with indicated compounds for 1 h and subsequently treated with AP20187 (100 nM) for 24 h. Cell viability was determined by measuring ATP levels.
# (§2) The cell viability was analyzed by using the CellTiter-Glo Luminescent Cell Viability Assay kit following the manufacturer’s instructions (Promega). Luminescence was measured with SpectraMax i3x (Molecular Devices).
# [2] = tested on: HeLa-MLKL (1–190) cells; assay: MLKL dimerization-induced cell death (AP20187); type: cell-based, human; settings: AP20187 100 nM, 24 h
# Method: as §1
# (§3) Further, we evaluated the selectivity of PK68 against a panel of 369 kinases provided by Reaction Biology (at 1000 nM). […] In addition, we followed on some of the active “hits” from the kinome scan. PK68 was tested against TNIK and TRKA by a reputable CRO company. […] RIPK1 is known to mediate NF-κB activation independently of its kinase activity. […] It has been shown that homodimerization of RIPK3 or MLKL induced by the dimerizer leads to necroptosis bypassing the upstream signals[10],[37]. […] This dimerized RIPK3-induced necroptosis was blocked by RIPK3 inhibitor GSK873 but was not blocked by the RIPK1 inhibitor necrostatin-1. […] (Fig. 4e).
# as §2
# [3] = tested on: NIH3T3-RIPK3 cells; assay: RIPK3 dimerization-induced necroptosis (AP20187); type: cell-based, mouse; settings: AP20187 100 nM, 24 h
# Method: as §1, §3, §2
# [4] = tested on: TNF-induced systemic inflammatory response syndrome; assay: TNF-induced SIRS mouse model; type: in vivo, C57BL/6 mice; settings: for protection against TNFα-induced lethal shock: PK6 30 mg/kg, PK68 1 mg/kg ip, 15 min before TNF-α 6 μg per mouse
# Method: Necroptosis is involved in a variety of inflammatory disorders such as TNF-induced SIRS[11],[12]. We therefore evaluated the therapeutic effect of PK68 in a mouse model of TNF-induced SIRS. C57BL/6 mice were treated with vehicle, PK6, or PK68 for 15 min prior to intravenous injection of mouse TNFα (6 µg TNFα per mouse). […] SIRS is associated with systemic release of proinflammatory cytokines and tissue injuries. […] Moreover, TNF-induced damage of the colon was attenuated by the treatment of PK68 (Fig. 7d).
# Fig. 7 PK68 ameliorates TNF-induced systemic inflammatory response syndrome. C57BL/6 mice (n = 11) were injected with vehicle, PK6 (30 mg/kg), or PK68 (1 mg/kg) via intraperitoneal injection for 15 min, followed by the tail intravenous injection of mouse TNF-α (6 μg per mouse). a, b The survival rate (a) and body temperature loss (b) were monitored. c, d C57BL/6 mice (n = 5) were injected with vehicle or PK68 (1 mg/kg) for 15 min prior to the injection of mouse TNF-α. The mice were sacrificed 4 h after TNF-α administration, the serum concentration of IL-1β was measured by ELISA kits (c), and histology of the colon tissue was analyzed by H&E staining and the representative images are shown (d). The serum or colon tissue from C57BL/6 mice was used as the control (Normal). Magnification: ×100 (left) and ×200 (right). Data represent mean value ± standard deviation. *P < 0.05. **P < 0.01. ***P < 0.001
# PK6 and PK68 were diluted into sterile PBS. C57BL/6 mice were pretreated with vehicle, PK6 (30 mg/kg), or PK68 (1 mg/kg) via intraperitoneal injection for around 15 min and then challenged with mouse TNF-α (6 μg per mouse) via tail intravenous injection. Mice mortality was continuously monitored till 72 h after TNF-α administration. The serum and colon tissue are collected at 4 h post TNF-α challenge.
# [5] = target: T1, mouse RIPK1 (Mus musculus, UniProt Q60855); assay: In vitro kinase activity assay (ADP-Glo); type: biochemical; settings: recombinant mouse RIPK1
# T1 construct: purchased SignalChem
# Method: Having shown that PK6 and PK68 can inhibit activation of both RIPK1 and RIPK3 during TNF-mediated necroptosis, we sought to determine if PK6 and PK68 can directly target RIPK1 or and RIPK3 by performing in vitro kinase assays. Both PK6 and PK68 were able to block the kinase activities of both human RIPK1 and mouse RIPK1 in vitro (Fig. 4a and Supplementary Fig. 19).
# The recombinant RIPK1 or RIPK3 protein was incubated with DMSO or the indicated compound for 15 min in the assay buffer (25 mM HEPES pH 7.2, 20 mM MgCl2, 12.5 mM MnCl2, 12.5 mM β-glycerol phosphate, 5 mM EGTA, 2 mM EDTA, and 2 mM DTT). Then, ATP (50 μM) and the substrate MBP (20 μM) were added to the reaction at room temperature for 120 min. The luminescence was measured to calculate the kinase activity after the addition of the ADP-Glo Kinase Assay kit following the manufacturer’s instructions (Promega).
# Supplementary Figure 19. Both PK6 and PK68 were able to block the kinase activity of mouse RIPK1 in vitro.
# In vitro kinase activity assays using recombinant mouse RIPK1 were performed. Recombinant proteins were incubated with PK6(A) and PK68(B) as indicated. Data represent mean value ±standard deviation.
# T1 sequence (Q60855 whole entry): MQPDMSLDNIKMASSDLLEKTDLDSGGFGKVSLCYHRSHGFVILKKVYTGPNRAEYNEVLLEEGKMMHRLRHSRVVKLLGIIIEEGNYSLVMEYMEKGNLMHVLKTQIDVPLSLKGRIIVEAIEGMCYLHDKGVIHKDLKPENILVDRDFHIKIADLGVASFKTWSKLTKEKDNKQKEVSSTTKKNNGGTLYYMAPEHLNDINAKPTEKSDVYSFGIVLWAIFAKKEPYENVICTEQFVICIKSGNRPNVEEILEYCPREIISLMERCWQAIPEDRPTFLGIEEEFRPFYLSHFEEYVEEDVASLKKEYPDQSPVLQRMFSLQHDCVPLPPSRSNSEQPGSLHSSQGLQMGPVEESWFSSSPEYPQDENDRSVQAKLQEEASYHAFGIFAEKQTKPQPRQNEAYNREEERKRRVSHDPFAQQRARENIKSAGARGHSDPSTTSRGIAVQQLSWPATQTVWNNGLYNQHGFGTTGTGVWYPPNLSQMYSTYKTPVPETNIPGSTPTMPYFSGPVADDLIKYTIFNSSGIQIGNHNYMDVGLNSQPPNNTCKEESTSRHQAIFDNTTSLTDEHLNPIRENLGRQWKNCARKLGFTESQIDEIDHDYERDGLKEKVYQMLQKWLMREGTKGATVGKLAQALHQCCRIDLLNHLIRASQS
SMILES,TNF-induced necroptosis in NIH3T3-RIPK3 cells [1],polymerized MLKL-induced necroptosis [2],RIPK3 dimerization-induced necroptosis [3],protection against TNFα-induced lethal shock [4],kinase activity of mouse RIPK1 in vitro [5],TNFα-induced temperature loss ([4]; 1 mg/kg ip),"TNF-induced damage of the colon ([4]; 1 mg/kg, 4 h after TNF-α)","production of proinflammatory cytokines including IL-1β ([4]; 1 mg/kg, serum 4 h after TNF-α)"
"CC(=O)Nc1nc2ccc(-c3cnc(Cl)c(NC(=O)Cc4ccccc4)c3)cc2s1 [PK6, N-(5-(2-acetamidobenzo[d]thiazol-6-yl)-2-chloropyridin-3-yl)-2-phenylacetamide]",inhibit,neither PK6 nor PK68 had any effect,neither PK6 nor PK68 blocked,effective protection,able to block,–,–,–
"CC(=O)Nc1nc2ccc(-c3cnc(C)c(NC(=O)OC4CCCCC4)c3)cc2s1 [PK68, cyclohexyl (5-(2-acetamidobenzo[d]thiazol-6-yl)-2-methylpyridin-3-yl)carbamate]",inhibit,neither PK6 nor PK68 had any effect,neither PK6 nor PK68 blocked,effective protection,able to block,strongly reduced,attenuated,significantly ameliorated
